Source: patent US20100152244A1, “SELF-EMULSIFYING FORMULATION OF TIPRANAVIR FOR ORAL ADMINISTRATION” (BOEHRINGER INGELHEIM INTERNATIONAL GMBH, priority 2008, published 2010)

Assay: lipophilicity (Log P)
Type: physicochemical
Excerpt: One possible reason for the self emulsifying behavior of the Capmul-free formulation is that tipranavir which is a highly lipophilic compound (Log P=6) once dissolved serves as a lipid core in this pre-concentrated microemulsion system. However, this rationale is only a theory and it was certainly not available to serve as guidance and motivation to us when we set about to solve the instability problem posed by the Capmul-containing formulation.

SMILES: CCC[C@@]1(CCc2ccccc2)CC(O)=C([C@H](CC)c2cccc(NS(=O)(=O)c3ccc(C(F)(F)F)cn3)c2)C(=O)O1 [tipranavir, N-[3-[(1R)-1-[(6R)-5,6-dihydro-4-hydroxy-2-oxo-6-(2-phenylethyl)-6-propyl-2H-pyran-3-yl]propyl]phenyl]-5-(trifluoromethyl)-2-pyridinesulfonamide]
- logP: 6
